For experiment [1], the system named is T1, Bordetella sp. HSO16 laccase (Hb16c laccase).
T1 construct: gene cueO; crude culture supernatant, native secreted laccase, not purified; several laccase-like genes inferred by PCR
Nature of the experiment: ABTS oxidation at […] nm, Lineweaver-Burk. It counts as biochemical. The conditions noted are these: crude laccase; standard assay potassium phosphate pH 6, 30 °C. The source says: HSO16 laccase (Hb16c laccase)

The test system of experiment [2] is T2, Stenotrophomonas sp. BIJ16 laccase (Berl1^1b2 laccase).
T2 construct: gene MCOStm; crude culture supernatant, native secreted laccase, not purified; several laccase-like genes inferred by PCR
In words: ABTS oxidation at […] nm, Lineweaver-Burk. It counts as biochemical. As to conditions: crude laccase; standard assay potassium phosphate pH 6, 30 °C. The source says:
BIJ16 laccase (Berl1^1b2 laccase)

In the case of `CCn1c(=NN=c2sc3cc(S(=O)(=O)O)ccc3n2CC)sc2cc(S(=O)(=O)O)ccc21` [ABTS, 2,2’-azino-bis (3-ethylbenzothiazoline-6-sulfonic acid)], the Km (as a rule, the concentration of substrate that gives half-maximal velocity) was determined as 1.09 µM in experiment [1] and 0.636 µM in experiment [2].

The values are drawn from publication PMC6920499, “Sustainability potentials of novel laccase tinctures from Stenotrophomonas maltophilia BIJ16 and Bordetella bronchiseptica HSO16: From dye decolourization to denim bioscouring” (Biotechnology Reports, 2019).
